Measured values taken from patent US8501713B2, “Drug combinations for the treatment of duchenne muscular dystrophy” (Summit Corporation PLC, priority 2007, dated 2013).

Test system: Utrophin A promoter linked to a luciferase reporter gene
Test: Luciferase reporter assay (murine H2K cells)
Type: cell-based
Conditions: for activity at 10 µM: Mus musculus, H2K mdx, luciferase level relative to control, H2K/mdx/Utro A reporter cells, compound 10 μM final concentration, read-out: Activity; for Activity: luciferase reporter assay in murine H2K cells, classified relative to control
How it was run: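 Compound at 10 μM final was applied for 48 hrs to plated H2K mdx myoblasts (33° C, 10% CO2, interferon-containing medium) bearing a luciferase gene under the utrophin A promoter. Luminescence from lysed cells served as read-out.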

CCS(=O)(=O)c1ccc2oc(-c3ccc4sccc4c3)nc2c1 [Example 432, 2-(benzo[b]thiophen-5-yl)-5-(ethylsulfonyl)benzo[d]oxazole]
activity at 10 µM: > 401%

CC(C)C(=O)Nc1ccc2oc(-c3cccc(F)c3)nc2c1 [Example 245, N-(2-(3-fluorophenyl)benzo[d]oxazol-5-yl)isobutyramide]
activity at 10 µM: 301 to 400%

CC(C)C(=O)Nc1ccc2oc(-c3ccc(Cl)c(Cl)c3)nc2c1 [Example 268, N-(2-(3,4-dichlorophenyl)benzo[d]oxazol-5-yl)isobutyramide]
activity at 10 µM: > 401%

CC(C)(C)c1ccc2oc(-c3ccc4ccccc4c3)nc2c1 [Example 451, 5-tert-Butyl-2-(naphthalen-2-yl)benzo[d]oxazole]
activity at 10 µM: < 200%

Cc1ccc2oc(-c3ccc(Cl)c(NC(=O)c4ccco4)c3)nc2c1 [Example 677]
Activity: ++ (Between 201% and 300% relative to control)

Cc1ccc2nc(-c3ccc(O)cc3)sc2c1 [Example 643]
Activity: +++ (Between 301% and 400% relative to control)

Clc1cccc(-c2nc3ccccc3[nH]2)c1 [Example 514]
Activity: + (Up to 200% relative to control)

CSc1ccc2nc(-c3ccc(Cl)cc3)sc2c1 [Example 399, 2-(4-chlorophenyl)-6-(methylthio)benzo[d]thiazole]
activity at 10 µM: 301 to 400%

Cc1ccc(OCc2nc3ccccc3[nH]2)cc1 [Example 531]
Activity: ++ (Between 201% and 300% relative to control)

CCS(=O)(=O)c1ccc2oc(-c3cccc(Cl)c3)nc2c1 [Example 293, 2-(3-chlorophenyl)-5-(ethylsulfonyl)benzo[d]oxazole]
activity at 10 µM: > 401%

O=C(Nc1ccc(-c2nc3ccccc3[nH]2)cc1)c1ccc2c(c1)OCO2 [Example 540]
Activity: + (Up to 200% relative to control)

CN1CCN(c2ccc(-c3nc4cc(N)ccc4o3)cc2)CC1 [Example 151, 2-(4-(4-methylpiperazin-1-yl)phenyl)benzo[d]oxazol-5-amine]
activity at 10 µM: 201 to 300%

CCn1c(C)nc2cc(-c3ccccc3)ccc21 [Example 634]
Activity: +++ (Between 301% and 400% relative to control)

c1ccc(-c2ccc(-c3nc4ccccc4[nH]3)cc2)cc1 [Example 558]
Activity: + (Up to 200% relative to control)

c1ccc2sc(-c3ccc4c(c3)OCO4)nc2c1 [Example 608]
Activity: ++++ (Above 401% relative to control)

CC(C)S(=O)(=O)c1ccc2oc(-c3ccc(Cl)c(Cl)c3)nc2c1 [Example 434, 2-(3,4-dichlorophenyl)-5-(isopropylsulfonyl)benzo[d]oxazole]
activity at 10 µM: 301 to 400%

CC(C)C(=O)Nc1ccc2oc(-c3c(F)cccc3Cl)nc2c1 [Example 341, N-(2-(2-chloro-6-fluorophenyl)benzo[d]oxazol-5-yl)isobutyramide]
activity at 10 µM: < 200%

O=C(CC(F)(F)F)Nc1ccc2oc(-c3ccc(Cl)cc3)nc2c1 [Example 345, N-(2-(4-chlorophenyl)benzo[d]oxazol-5-yl)-3,3,3-trifluoropropanamide]
activity at 10 µM: 301 to 400%

Cc1ccnc(Nc2nc3ccccc3o2)n1 [Example 682]
Activity: ++ (Between 201% and 300% relative to control)

CCS(=O)(=O)c1ccc2oc(-c3ccc4ccccc4n3)nc2c1 [Example 422, 5-(ethylsulfonyl)-2-(quinolin-2-yl)benzo[d]oxazole]
activity at 10 µM: > 401%

Nc1ccc(-c2nc3cc(Cl)ccc3o2)cc1 [Example 289, 4-(5-chlorobenzo[d]oxazol-2-yl)aniline]
activity at 10 µM: > 401%

CCN(CC)c1ccc(-c2nc3cc(C(C)(C)C)ccc3o2)cc1 [Example 142, 4-(5-tert-butylbenzo[d]oxazol-2-yl)-N,N-diethylaniline]
activity at 10 µM: 201 to 300%

CCS(=O)(=O)c1ccc2oc(-c3sccc3C)nc2c1 [Example 436, 5-(ethylsulfonyl)-2-(3-methylthiophen-2-yl)benzo[d]oxazole]
activity at 10 µM: 201 to 300%

CCCC(=O)Nc1ccc2oc(-c3cccc(F)c3)nc2c1 [Example 244, N-(2-(3-fluorophenyl)benzo[d]oxazol-5-yl)butyramide]
activity at 10 µM: > 401%

Cc1ccc2nc(-c3ccc(C)c(N)c3)oc2c1 [Example 635]
Activity: +++ (Between 301% and 400% relative to control)

O=[N+]([O-])c1ccc2oc(C3CCCCC3)nc2c1 [Example 163, 2-cyclohexyl-5-nitrobenzo[d]oxazole]
activity at 10 µM: < 200%

Cn1c(-c2ccc([N+](=O)[O-])cc2)nc2ccccc21 [Example 472]
Activity: + (Up to 200% relative to control)

Clc1ccc(-c2nc3c(ccc4ccccc43)o2)cc1 [Example 409, 2-(4-chlorophenyl)naphtho[1,2-d]oxazole]
activity at 10 µM: > 401%

Cc1ccc(-c2nc3cccnc3o2)cc1 [Example 157, 2-p-tolyloxazolo[5,4-b]pyridine]
activity at 10 µM: 301 to 400%

O=C(c1ccccc1)c1ccc2nc(-c3ccccc3)[nH]c2c1 [Example 581]
Activity: + (Up to 200% relative to control)

CC(=O)Nc1ccc(-c2ccc3oc(-c4ccc(Cl)cc4)nc3c2)cn1 [Example 358, N-(5-(2-(4-chlorophenyl)benzo[d]oxazol-5-yl)pyridin-2-yl)acetamide]
activity at 10 µM: < 200%

Clc1ccc(-c2nc3cc4c(cc3o2)OCO4)cc1 [Example 310, 2-(4-chlorophenyl)-5,6-methylenedioxybenzoxazole]
activity at 10 µM: 301 to 400%

Cc1ccc(-c2nc3cc(NCc4ccccc4)ccc3o2)cc1 [Example 187, N-benzyl-2-p-tolylbenzo[d]oxazol-5-amine]
activity at 10 µM: 301 to 400%

O=S(=O)(Nc1ccc2oc(-c3ccccc3)nc2c1)c1ccccc1 [Example 221, N-(2-phenylbenzo[d]oxazol-5-yl)benzenesulfonamide]
activity at 10 µM: < 200%

CCOc1ccc(NCc2nc3ccccc3n2C)cc1 [Example 676]
Activity: ++ (Between 201% and 300% relative to control)

Cn1c(COc2ccccc2)nc2ccccc21 [Example 474]
Activity: + (Up to 200% relative to control)

CCCC(=O)Nc1ccc2oc(-c3ccc(OC)cc3)nc2c1 [Example 137, N-(2-(4-methoxyphenyl)benzo[d]oxazol-5-yl)butyramide]
activity at 10 µM: 201 to 300%

O=C(Nc1ccc2oc(-c3ccccc3)nc2c1)c1ccc(Cl)cc1 [Example 23, 4-chloro-N-(2-phenylbenzo[d]oxazol-5-yl)benzamide]
activity at 10 µM: < 200%

CC(C)C(=O)Nc1ccc2oc(-c3ccc(Cl)cc3F)nc2c1 [Example 343, N-(2-(4-chloro-2-fluorophenyl)benzo[d]oxazol-5-yl)isobutyramide]
activity at 10 µM: > 401%

O=C(Nc1ccc2oc(-c3ccc(Cl)cc3)nc2c1)c1ccc(Cl)cc1 [Example 89, 4-chloro-N-(2-(4-chlorophenyl)benzo[d]oxazol-5-yl)benzamide]
activity at 10 µM: < 200%

O=C(Cc1ccccc1)Nc1ccc2oc(-c3ccccc3)nc2c1 [Example 33, 2-phenyl-N-(2-phenylbenzo[d]oxazol-5-yl)acetamide]
activity at 10 µM: < 200%

c1ccc2cc(-c3nc4ccccc4o3)ccc2c1 [Example 450, 2-(Naphthalen-2-yl)benzo[d]oxazole]
activity at 10 µM: > 401%

Clc1ccc(-c2cc3cc(-c4ccccc4)ccc3[nH]2)cc1 [Example 339, 2-(4-chlorophenyl)-5-phenyl-1H-indole]
activity at 10 µM: < 200%

Cc1ccc(S(=O)(=O)Nc2ccc3[nH]c(-c4ccco4)nc3c2)cc1 [Example 536]
Activity: + (Up to 200% relative to control)

CCOc1ccc2nc(NC(=O)c3ccccc3)sc2c1 [Example 555]
Activity: + (Up to 200% relative to control)

CCCc1ccc(-c2nc3ccc(-c4nc5ccc(C(=O)O)cc5o4)cc3o2)cc1 [Example 110, 2′-(4-propylphenyl)-2,6′-bibenzo[d]oxazole-6-carboxylic acid]
activity at 10 µM: < 200%

Nc1ccc2oc(-c3ccc4c(c3)OCO4)nc2c1 [Example 299, 2-(benzo[d][1,3]dioxol-5-yl)benzo[d]oxazol-5-amine]
activity at 10 µM: 201 to 300%

Cc1ccc2nc(-c3cccc(NC(=O)c4ccco4)c3)[nH]c2c1 [Example 538]
Activity: + (Up to 200% relative to control)

COc1ccccc1C(=O)Nc1ccc2oc(-c3cccnc3)nc2c1 [Example 43, 2-methoxy-N-(2-(pyridin-3-yl)benzo[d]oxazol-5-yl)benzamide]
activity at 10 µM: < 200%

O=C(Nc1ccc2oc(-c3ccc(C(F)(F)F)cc3)nc2c1)c1cccnc1 [Example 121, N-(2-(4-(trifluoromethyl)phenyl)benzo[d]oxazol-5-yl)nicotinamide]
activity at 10 µM: < 200%

Nc1ccc2oc(-c3ccccc3Cl)nc2c1 [Example 206, 2-(2-chlorophenyl)benzo[d]oxazol-5-amine]
activity at 10 µM: 201 to 300%

O=C(Nc1ccc2oc(-c3ccc(Cl)cc3)nc2c1)c1ccc(C(F)(F)F)cc1 [Example 94, N-(2-(4-chlorophenyl)benzo[d]oxazol-5-yl)-4-(trifluoromethyl)benzamide]
activity at 10 µM: < 200%

Cc1cc(C)c2nc(-c3ccc(N)cc3)oc2c1 [Example 590]
Activity: ++++ (Above 401% relative to control)

CC(=O)Nc1ccc2[nH]c(-c3ccco3)nc2c1 [Example 534]
Activity: + (Up to 200% relative to control)

Clc1ccc2oc(-c3ccncc3)nc2c1 [Example 330, 5-chloro-2-(pyridin-4-yl)benzo[d]oxazole]
activity at 10 µM: < 200%

COc1ccc(-c2nc3cc(NC(C)=O)ccc3o2)cc1Cl [Example 519]
Activity: ++ (Between 201% and 300% relative to control)

O=C(Nc1ccc2oc(-c3cccnc3)nc2c1)c1ccc(-c2ccccc2)cc1 [Example 49, N-(2-(pyridin-3-yl)benzo[d]oxazol-5-yl)biphenyl-4-carboxamide]
activity at 10 µM: < 200%

Cc1ccc(-c2nc3cc(NC(=O)C(C)C)ccc3o2)cc1 [Example 118, N-(2-p-tolylbenzo[d]oxazol-5-yl)isobutyramide]
activity at 10 µM: 201 to 300%
